Assay results from PubChem BioAssay (NCI).
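Exposure lasted 48 hours, with cells grown in 96-well plates and compounds tested at five concentrations. GI50: concentration for 50% inhibition of growth. At the TGI there is no net growth.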

How the values were obtained:
Assay in all cases: growth of human tumour cells (NCI), 48 h
[1] = test system: 786-0 renal
[2] = test system: A498 renal
[3] = test system: A549 NSCLC
[4] = test system: ACHN renal
[5] = test system: BT-549 breast
[6] = test system: CAKI-1 renal
[7] = test system: CCRF-CEM leukemia
[8] = test system: COLO 205 colon
[9] = test system: DU-145 prostate
[10] = test system: EKVX NSCLC
[11] = test system: HCC-2998 colon
[12] = test system: HCT-116 colon
[13] = test system: HCT-15 colon
[14] = test system: HL-60(TB) leukemia
[15] = test system: HOP-62 NSCLC
[16] = test system: HOP-92 NSCLC
[17] = test system: HS 578T breast
[18] = test system: HT29 colon
[19] = test system: IGROV1 ovarian
[20] = test system: K-562 leukemia
[21] = test system: KM12 colon
[22] = test system: LOX IMVI melanoma
[23] = test system: M14 melanoma
[24] = test system: MALME-3M melanoma
[25] = test system: MCF7 breast
[26] = test system: MDA-MB-231 breast
[27] = test system: MDA-MB-435
[28] = test system: MOLT-4 leukemia
[29] = test system: NCI-H226 lung
[30] = test system: NCI-H23 lung
[31] = test system: NCI-H460 lung
[32] = test system: NCI-H522 lung
[33] = test system: NCI/ADR-RES ovarian
[34] = test system: OVCAR-3 ovarian
[35] = test system: OVCAR-4 ovarian
[36] = test system: OVCAR-5 ovarian
[37] = test system: OVCAR-8 ovarian
[38] = test system: PC-3 prostate
[39] = test system: RPMI-8226 leukemia
[40] = test system: RXF 393 renal
[41] = test system: SF-268 CNS
[42] = test system: SF-295 CNS
[43] = test system: SF-539 CNS
[44] = test system: SK-MEL-2 melanoma
[45] = test system: SK-MEL-28 melanoma
[46] = test system: SK-MEL-5 melanoma
[47] = test system: SK-OV-3 ovarian
[48] = test system: SN12C renal
[49] = test system: SNB-19 CNS
[50] = test system: SNB-75 CNS
[51] = test system: SR leukemia
[52] = test system: SW-620 colon
[53] = test system: T-47D breast
[54] = test system: TK-10 renal
[55] = test system: U251 CNS
[56] = test system: UACC-257 melanoma
[57] = test system: UACC-62 melanoma
[58] = test system: UO-31 renal

COc1ccc([C@@H]2[C@@H](O)C(=O)N2c2cc(OC)c(OC)c(OC)c2)cc1
GI50 [1]: 0.0916 µM | TGI [1]: > 100 µM | GI50 [2]: 11.3 µM | TGI [2]: > 88.7 µM | GI50 [3]: 0.0924 µM | TGI [3]: > 100 µM | GI50 [4]: 0.0723 µM | TGI [4]: > 100 µM | GI50 [5]: 0.0941 µM | TGI [5]: 2.43 µM | GI50 [6]: 0.0486 µM | TGI [6]: > 33.8 µM | GI50 [7]: 0.0413 µM | GI50 [8]: 0.0696 µM | TGI [8]: 0.173 µM | GI50 [9]: 0.0761 µM | TGI [9]: > 100 µM | GI50 [10]: 0.0799 µM | TGI [10]: > 100 µM | GI50 [11]: 0.0982 µM | TGI [11]: 10 µM | GI50 [12]: 0.0386 µM | TGI [12]: > 100 µM | GI50 [13]: 0.0727 µM | TGI [13]: > 100 µM | GI50 [14]: 0.0309 µM | TGI [14]: 0.126 µM | GI50 [15]: 0.0758 µM | TGI [15]: > 100 µM | GI50 [16]: > 44.6 µM | TGI [16]: > 100 µM | GI50 [17]: 0.041 µM | TGI [17]: > 100 µM | GI50 [18]: 0.0329 µM | TGI [18]: 0.175 µM | GI50 [19]: 0.0577 µM | TGI [19]: > 100 µM | GI50 [20]: 0.0339 µM | TGI [20]: > 100 µM | GI50 [21]: 0.0413 µM | TGI [21]: > 100 µM | GI50 [22]: 0.0473 µM | TGI [22]: > 100 µM | GI50 [23]: 0.0423 µM | TGI [23]: > 100 µM | GI50 [24]: 0.105 µM | TGI [24]: > 100 µM | GI50 [25]: 0.0351 µM | TGI [25]: > 100 µM | GI50 [26]: 0.0558 µM | TGI [26]: > 100 µM | GI50 [27]: 0.0281 µM | TGI [27]: 0.0837 µM | GI50 [28]: 0.101 µM | TGI [28]: > 100 µM | GI50 [29]: 0.525 µM | TGI [29]: > 100 µM | GI50 [30]: 0.063 µM | TGI [30]: > 100 µM | GI50 [31]: 0.0593 µM | TGI [31]: > 100 µM | GI50 [32]: 0.0248 µM | TGI [32]: 0.0767 µM | GI50 [33]: 0.0725 µM | TGI [33]: > 100 µM | GI50 [34]: 0.0345 µM | TGI [34]: 0.327 µM | GI50 [35]: 5.86 µM | TGI [35]: > 100 µM | GI50 [36]: 0.0613 µM | TGI [36]: > 100 µM | GI50 [37]: 0.0376 µM | TGI [37]: > 100 µM | GI50 [38]: 0.0856 µM | TGI [38]: > 100 µM | GI50 [39]: 0.0448 µM | TGI [39]: 5.61 µM | GI50 [40]: 0.026 µM | TGI [40]: > 100 µM | GI50 [41]: 0.214 µM | TGI [41]: > 100 µM | GI50 [42]: 0.0378 µM | TGI [42]: > 100 µM | GI50 [43]: 0.0305 µM | TGI [43]: > 100 µM | GI50 [44]: 0.135 µM | TGI [44]: > 100 µM | TGI [45]: > 100 µM | GI50 [46]: 0.0452 µM | TGI [46]: 0.232 µM | GI50 [47]: 0.147 µM | TGI [47]: > 57.1 µM | GI50 [48]: 0.124 µM | TGI [48]: > 100 µM | GI50 [49]: 0.12 µM | TGI [49]: > 100 µM | GI50 [50]: 0.0465 µM | TGI [50]: > 100 µM | GI50 [51]: 0.0343 µM | TGI [51]: > 100 µM | GI50 [52]: 0.0504 µM | TGI [52]: > 100 µM | GI50 [53]: 19 µM | TGI [53]: > 100 µM | GI50 [54]: 32.9 µM | TGI [54]: > 100 µM | GI50 [55]: 0.0404 µM | TGI [55]: > 100 µM | GI50 [56]: 5.35 µM | TGI [56]: > 100 µM | GI50 [57]: 0.0417 µM | TGI [57]: > 100 µM | GI50 [58]: 0.0659 µM | TGI [58]: > 100 µM
